The values below come from PMC6389506 (Cell chemical biology, 2017).

The target in one assay is CDK12 (Homo sapiens, UniProt Q9NYV4). Description: CE-MS intact mass shift and MS/MS of the labeled peptide. In kind it is cell-based.
Assay [1] addresses T1, CDK9 (Homo sapiens, UniProt P50750). Kind of assay: KINOMEscan profiling / biochemical kinase assay.
For the next assay, the target named is CDK7 (Homo sapiens, UniProt P50613). Kind of assay: biochemical kinase inhibition.
For assay [2], the target named is T1, CDK9. Description: biochemical kinase inhibition.
The next assay addresses CDK2 (Homo sapiens, UniProt P24941). Kind of assay: biochemical kinase inhibition.

T1 sequence (P50750 whole entry): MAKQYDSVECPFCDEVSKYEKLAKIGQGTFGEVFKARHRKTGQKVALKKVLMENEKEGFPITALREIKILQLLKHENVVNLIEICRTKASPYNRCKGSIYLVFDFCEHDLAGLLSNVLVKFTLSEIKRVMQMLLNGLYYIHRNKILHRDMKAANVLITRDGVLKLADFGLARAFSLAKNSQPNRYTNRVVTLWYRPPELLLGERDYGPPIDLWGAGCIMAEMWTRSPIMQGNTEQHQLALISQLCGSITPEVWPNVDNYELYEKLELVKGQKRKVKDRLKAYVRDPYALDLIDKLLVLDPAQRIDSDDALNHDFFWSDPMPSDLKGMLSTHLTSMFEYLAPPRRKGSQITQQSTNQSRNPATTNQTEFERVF
Chain of CDK7 (P50613 2-346): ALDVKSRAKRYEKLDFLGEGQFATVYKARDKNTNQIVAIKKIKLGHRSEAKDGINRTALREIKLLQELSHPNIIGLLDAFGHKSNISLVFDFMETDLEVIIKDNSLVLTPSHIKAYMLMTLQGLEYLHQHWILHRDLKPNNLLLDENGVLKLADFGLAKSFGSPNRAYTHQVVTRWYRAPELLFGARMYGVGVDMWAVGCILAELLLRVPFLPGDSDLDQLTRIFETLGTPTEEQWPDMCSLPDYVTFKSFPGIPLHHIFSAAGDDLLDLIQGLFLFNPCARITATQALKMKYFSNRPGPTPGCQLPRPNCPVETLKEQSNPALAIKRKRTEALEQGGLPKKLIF
Chain of CDK7 (P51946 whole entry partner): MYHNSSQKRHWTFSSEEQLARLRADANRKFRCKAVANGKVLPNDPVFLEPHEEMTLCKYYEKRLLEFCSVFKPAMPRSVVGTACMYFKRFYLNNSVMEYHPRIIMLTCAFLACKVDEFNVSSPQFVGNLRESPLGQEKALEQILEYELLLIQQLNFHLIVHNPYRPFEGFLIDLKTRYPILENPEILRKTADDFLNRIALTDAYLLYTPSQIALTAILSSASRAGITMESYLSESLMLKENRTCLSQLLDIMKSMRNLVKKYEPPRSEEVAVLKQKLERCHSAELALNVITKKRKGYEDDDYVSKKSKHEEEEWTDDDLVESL
Chain of CDK12 (Q9NYV4 whole entry): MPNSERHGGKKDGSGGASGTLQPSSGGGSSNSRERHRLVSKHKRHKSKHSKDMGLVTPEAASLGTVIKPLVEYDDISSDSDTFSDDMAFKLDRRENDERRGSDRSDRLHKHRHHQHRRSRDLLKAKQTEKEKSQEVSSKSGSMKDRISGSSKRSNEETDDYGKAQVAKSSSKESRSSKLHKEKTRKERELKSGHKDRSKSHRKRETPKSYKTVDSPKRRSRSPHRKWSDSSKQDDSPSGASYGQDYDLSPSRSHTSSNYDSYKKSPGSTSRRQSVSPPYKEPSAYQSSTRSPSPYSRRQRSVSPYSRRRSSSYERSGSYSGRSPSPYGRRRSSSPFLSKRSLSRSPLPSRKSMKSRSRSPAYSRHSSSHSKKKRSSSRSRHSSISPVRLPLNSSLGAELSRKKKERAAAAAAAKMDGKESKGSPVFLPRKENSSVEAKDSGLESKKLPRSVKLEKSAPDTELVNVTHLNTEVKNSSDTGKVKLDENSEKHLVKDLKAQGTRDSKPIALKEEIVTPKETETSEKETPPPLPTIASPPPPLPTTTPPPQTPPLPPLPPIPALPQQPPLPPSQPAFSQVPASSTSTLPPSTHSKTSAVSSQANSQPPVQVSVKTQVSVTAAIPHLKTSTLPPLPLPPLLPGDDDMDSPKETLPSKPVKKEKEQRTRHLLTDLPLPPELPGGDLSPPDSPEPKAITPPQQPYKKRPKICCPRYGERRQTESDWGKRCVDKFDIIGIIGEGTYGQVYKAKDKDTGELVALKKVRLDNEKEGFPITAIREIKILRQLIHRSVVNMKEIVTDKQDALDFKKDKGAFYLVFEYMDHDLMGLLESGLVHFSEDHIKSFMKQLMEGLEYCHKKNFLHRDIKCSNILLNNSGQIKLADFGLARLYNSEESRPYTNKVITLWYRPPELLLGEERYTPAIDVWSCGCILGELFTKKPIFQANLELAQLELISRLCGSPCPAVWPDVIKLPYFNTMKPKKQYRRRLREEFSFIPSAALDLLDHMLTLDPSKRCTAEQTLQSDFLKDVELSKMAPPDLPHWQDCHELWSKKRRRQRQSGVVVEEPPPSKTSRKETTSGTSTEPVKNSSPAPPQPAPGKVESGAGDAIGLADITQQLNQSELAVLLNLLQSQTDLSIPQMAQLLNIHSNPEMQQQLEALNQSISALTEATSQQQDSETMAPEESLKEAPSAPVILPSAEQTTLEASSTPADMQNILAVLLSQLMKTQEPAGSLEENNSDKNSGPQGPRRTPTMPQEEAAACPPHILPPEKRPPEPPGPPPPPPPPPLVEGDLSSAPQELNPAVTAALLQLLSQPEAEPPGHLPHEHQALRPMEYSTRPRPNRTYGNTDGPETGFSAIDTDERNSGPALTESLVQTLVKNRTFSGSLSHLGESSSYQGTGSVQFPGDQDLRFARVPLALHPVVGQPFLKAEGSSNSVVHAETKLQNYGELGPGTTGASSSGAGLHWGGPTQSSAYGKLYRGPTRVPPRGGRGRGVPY
Chain of CDK12 (O75909 whole entry partner): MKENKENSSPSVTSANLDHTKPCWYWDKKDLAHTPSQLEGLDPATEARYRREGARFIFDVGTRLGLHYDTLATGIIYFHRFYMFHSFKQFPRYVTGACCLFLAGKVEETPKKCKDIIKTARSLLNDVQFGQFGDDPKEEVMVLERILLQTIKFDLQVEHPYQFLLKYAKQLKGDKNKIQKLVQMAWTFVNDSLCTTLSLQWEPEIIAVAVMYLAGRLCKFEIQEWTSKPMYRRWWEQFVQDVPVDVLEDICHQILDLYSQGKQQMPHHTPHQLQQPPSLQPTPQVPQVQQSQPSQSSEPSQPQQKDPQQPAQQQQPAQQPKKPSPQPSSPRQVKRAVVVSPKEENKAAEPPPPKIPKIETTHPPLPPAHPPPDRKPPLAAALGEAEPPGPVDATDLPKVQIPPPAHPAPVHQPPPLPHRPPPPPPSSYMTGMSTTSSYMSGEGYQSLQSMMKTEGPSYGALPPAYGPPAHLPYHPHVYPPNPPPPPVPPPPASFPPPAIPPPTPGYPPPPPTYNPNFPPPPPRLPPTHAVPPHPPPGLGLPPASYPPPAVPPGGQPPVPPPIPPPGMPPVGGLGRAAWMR

In the case of `C=CC(=O)Nc1cccc(Nc2cc(N3CCCC[C@H]3CCO)nc3c(CC)cnn23)c1` [E9, (S)-N-(3-(3-Ethyl-5-(2-(2-Hydroxyethyl)piperidin-1-yl)pyrazolo[1,5-a]pyrimidin-7-ylamino)phenyl)acrylamide], the “CE-MS intact mass shift and MS/MS of the labeled peptide; bio-THZ1 competition p” value at CDK12 was less than 25 nM. Further, the “KINOMEscan profiling / biochemical kinase assay” value at CDK9 [1] is given as “E9 still retained fairly strong biochemical activity against CDK9”.
For `CCC(=O)Nc1cccc(Nc2cc(N3CCCC[C@H]3CCO)nc3c(CC)cnn23)c1` [E9-R, (S)-N-(3-((3-Ethyl-5-(2-(2-Hydroxyethyl)piperidin-1-yl)pyrazolo[1,5-a]pyrimidin-7-yl)amino)phenyl)propionamide], the biochemical kinase inhibition entry at CDK7 was “E9-R exhibited improved biochemical inhibition of CDK2, CDK7, and CDK9 compared with E9”; on CDK9 [2], “E9-R exhibited improved biochemical inhibition of CDK2, CDK7, and CDK9 compared with E9”; at CDK2, “E9-R exhibited improved biochemical inhibition of CDK2, CDK7, and CDK9 compared with E9”.
